Among the data in patent US11453660B2, “Androgen receptor and glucocorticoid receptor modulators” (ONCOSTELLAE, S.L., priority 2017, dated 2022) are IC50 values, retold here.

One assay addresses T1, Rat Androgen Receptor (Rattus norvegicus, UniProt P15207).
T1 construct: purchased Life Technologies A15880
T1 sequence (P15207 646-902 limits assumed): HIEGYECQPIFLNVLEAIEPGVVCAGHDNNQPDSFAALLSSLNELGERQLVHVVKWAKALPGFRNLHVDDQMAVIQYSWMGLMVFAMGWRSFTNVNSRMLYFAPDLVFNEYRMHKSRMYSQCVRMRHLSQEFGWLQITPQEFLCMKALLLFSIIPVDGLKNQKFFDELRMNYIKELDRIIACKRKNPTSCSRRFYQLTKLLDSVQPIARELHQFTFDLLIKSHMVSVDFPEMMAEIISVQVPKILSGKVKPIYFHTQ
The assay is described as follows: Rat Androgen Receptor Binding (polarscreen AR competitor assay, fluorescence polarization). The settings on record: displacement of Fluormone AL Green, 4 hours at RT, read-out: AR rat-fluorimetric. As for the experimental part:
Pharmacological Activity Rat Androgen Receptor Binding
The assay was carried out following the instructions of polarscreen AR competitor assay green kit (Life Technologies, Cat #.: A15880). Briefly, the test is based on measuring the changes of fluorescence polarization shown by the Fluormone AL Green. Thus, when the Fluormone is bound to the receptor, a fluorescence polarization is observed that diminishes when a ligand competes for the receptor binding site and the Fluormone gets displaced.
The inhibition values for each of the compounds are measured in duplicate at 1 and 10 μM and the plate is incubated for 4 hours at RT. Fluorescence polarization is the measured in a Tecan Infinite M1000 Pro reader (λexc=485 nm, λem=535 nm). In order to obtain a dose-response curve and calculate the potency of inhibition (expressed as IC50) for AR, a series of 1:10 dilutions in test in 1× buffer from 10 μM to 0.1 nM for each compound was carried out.

Another assay deals with T2, human androgen receptor (Homo sapiens, UniProt P10275, T878A).
T2 construct: endogenously expressed human androgen receptor using the LnCap prostate cancer cell line; endogenous in cells; host or cells: LNCaP prostate cancer cell line (whole cells)
T2 sequence (P10275 1-920 T878A): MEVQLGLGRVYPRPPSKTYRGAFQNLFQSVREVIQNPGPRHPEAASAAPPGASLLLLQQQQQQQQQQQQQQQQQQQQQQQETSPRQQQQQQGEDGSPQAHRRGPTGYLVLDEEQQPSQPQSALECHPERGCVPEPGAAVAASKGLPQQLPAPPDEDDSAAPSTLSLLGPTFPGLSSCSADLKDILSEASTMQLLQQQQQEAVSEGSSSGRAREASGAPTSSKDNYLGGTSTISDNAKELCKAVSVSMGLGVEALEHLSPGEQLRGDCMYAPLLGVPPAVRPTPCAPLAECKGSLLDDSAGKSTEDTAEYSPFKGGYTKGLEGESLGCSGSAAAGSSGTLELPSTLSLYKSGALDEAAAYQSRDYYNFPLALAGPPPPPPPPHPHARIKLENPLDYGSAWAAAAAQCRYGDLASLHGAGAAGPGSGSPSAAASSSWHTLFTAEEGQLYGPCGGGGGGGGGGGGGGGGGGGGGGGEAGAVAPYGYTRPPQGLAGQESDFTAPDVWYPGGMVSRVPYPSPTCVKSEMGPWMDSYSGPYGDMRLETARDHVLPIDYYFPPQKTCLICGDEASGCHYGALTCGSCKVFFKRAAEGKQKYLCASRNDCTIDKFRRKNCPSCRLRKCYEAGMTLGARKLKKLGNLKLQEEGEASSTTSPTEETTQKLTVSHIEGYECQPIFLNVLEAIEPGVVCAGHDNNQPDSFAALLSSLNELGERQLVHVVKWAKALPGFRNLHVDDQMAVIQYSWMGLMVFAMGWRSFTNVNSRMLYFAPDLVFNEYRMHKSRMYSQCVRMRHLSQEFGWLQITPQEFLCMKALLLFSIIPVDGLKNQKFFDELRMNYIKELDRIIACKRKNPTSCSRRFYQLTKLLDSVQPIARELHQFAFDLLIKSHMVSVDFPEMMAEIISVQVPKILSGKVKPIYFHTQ
The experiment in a line: Human Androgen Receptor Binding (radioligand binding, LnCap prostate cancer cell line). The following applies: LnCap cells, displacement of [^3H]-methyltrienolone, 2 hours at 37° C.; read-out: AR LNCaP. The method, then:
Human Androgen Receptor Binding
Radioligand binding studies were carried out on endogenously expressed human androgen receptor using the LnCap prostate cancer cell line. The test is based on measuring radioactively labelled AR ligand [^3H]-methyltrienolone that gets displaced by increasing concentrations of test compound. The test is performed in 96-well plates (Falcon, #353072). Positive and negative controls are also required in each analyzed plate to evaluate the total and non-specific binding binding of the radioligand to the receptor. Cells (60000 per well) were incubated for 24 hours before executing the experiment at 37° C. and in a 5% CO2 atmosphere. Medium was replaced by assay buffer (RPMI-640 (ATCC #30-2001) supplemented with 0.1% bovine serum albumin (Sigma #8806-56) and Triamcinolone acetonide (Sigma #T6501)). The compounds at the desired concentrations and [^3H]methyltrienolone (Perkin Elmer #NET590) were added to the wells.
In order to obtain a dose-response curve and calculate the potency of inhibition (expressed as IC50) for AR, a series of 1:10 dilutions in test in 1× buffer from 10 μM to 0.1 nM for each compound was carried out.
Cells were incubated for 2 hours at 37° C. in a 5% CO2 atmosphere and then washed twice with ice-cold HBSS. Then cells were lysed with solubilization buffer (Hank's Balanced Salt Solution (HBSS, Sigma #H6648), 0.5% Sodium dodecyl sulfate 0.5% (SDS, Sigma #L7390-500G, Lote: 078K0102) and 20% Glycerol (Sigma Aldrich, #G2025) for 30 minutes at RT. 75 μL aliquots were taken from each well and transferred to a 96-well flexiplate (Perkin Elmer #1450-401) and mixed with 100 μL of scintillation cocktail (Optiphase supermix, PerkinElmer, #1200-439). Plates are shaken for 60 minutes and radioactivity was measured in a beta scintillation counter (Microbeta Trilux, Perkin Elmer).

In assay [1] the target is T3, Human Glucocorticoid Receptor (Homo sapiens, UniProt P04150).
T3 construct: endogenous in cells; host or cells: cytosol from IM-9 cell line
T3 sequence (P04150 1-777): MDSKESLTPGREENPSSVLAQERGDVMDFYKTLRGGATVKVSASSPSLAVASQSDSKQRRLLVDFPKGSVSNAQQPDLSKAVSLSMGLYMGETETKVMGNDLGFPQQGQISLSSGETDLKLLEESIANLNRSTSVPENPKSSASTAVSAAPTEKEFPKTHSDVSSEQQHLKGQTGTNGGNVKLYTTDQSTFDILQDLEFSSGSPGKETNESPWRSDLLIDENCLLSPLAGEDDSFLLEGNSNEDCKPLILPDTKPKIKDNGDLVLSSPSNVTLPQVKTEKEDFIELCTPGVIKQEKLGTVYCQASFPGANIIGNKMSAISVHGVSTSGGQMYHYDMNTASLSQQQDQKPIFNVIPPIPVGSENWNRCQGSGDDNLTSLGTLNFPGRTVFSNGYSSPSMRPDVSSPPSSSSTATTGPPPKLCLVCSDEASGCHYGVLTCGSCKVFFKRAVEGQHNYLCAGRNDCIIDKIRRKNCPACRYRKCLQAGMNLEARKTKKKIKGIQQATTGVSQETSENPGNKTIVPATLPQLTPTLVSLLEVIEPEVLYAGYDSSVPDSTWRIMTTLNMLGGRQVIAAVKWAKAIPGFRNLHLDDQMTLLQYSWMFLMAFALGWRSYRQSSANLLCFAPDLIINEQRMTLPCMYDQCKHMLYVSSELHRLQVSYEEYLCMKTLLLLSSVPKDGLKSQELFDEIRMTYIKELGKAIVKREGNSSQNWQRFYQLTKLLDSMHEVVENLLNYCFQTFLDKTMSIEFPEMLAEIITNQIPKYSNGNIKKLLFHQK
The experiment in a line: Competition Binding in IM-9 Human Glucocorticoid Receptor (GR IM-9). The settings on record: cytosol from IM-9 cell line, 1.5 nM [3H]-Dexamethasone, 4° C. for 6 hours. Summed up:
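Radioligand competition using 100 μg IM-9 cell cytosol and 1.5 nM [3H]-dexamethasone, incubated 6 h at 4° C in TES/molybdate buffer, pH 7.4. Filtration on PEI-treated GF/B filters, scintillation counting; nonspecific binding defined with 10 μM triamcinolone.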

As to `COC(=O)C1=C(C)NC(C)=C(C(C)=O)C1c1csc2ccccc12` (single isomer, unassigned) [Example A2, Methyl 5-acetyl-4-(benzo[b]thiophen-3-yl)-2,6-dimethyl-1,4-dihydro-pyridine-3-carboxylate], the IC50 on Rat Androgen Receptor was in the range of 100 to 1000 nM.

In the case of `CC(=O)C1=C(C)NC(C2CC2)=C(C(C)=O)C1c1csc2ccccc12` (centres unmarked) [Example J6, 1,1′-(4-(benzo[b]thiophen-3-yl)-2-cyclopropyl-6-methyl-1,4-dihydro-pyridine-3,5-diyl)diethanone], the IC50 at Rat Androgen Receptor is at least 1000 nM.

On to `CC(=O)C1=C(C)NC(C)=C(C(C)=O)C1c1csc2ccc(C(=O)O)cc12` [Example H8, 3-(3,5-diacetyl-2,6-dimethyl-1,4-dihydropyridin-4-yl)benzo[b]thiophene-5-carboxylic acid], for which the IC50 on Rat Androgen Receptor was at least 1000 nM.

As for `CC(=O)C1=C(C)NC(C)=C(C(C)=O)C1c1csc2ccc(-c3cccnc3)cc12` [Example M1, 1,1′-(2,6-dimethyl-4-(5-(pyridin-3-yl)benzo[b]thiophen-3-yl)-1,4-dihydro-pyridine-3,5-diyl)diethanone], at Rat Androgen Receptor, the IC50 is at least 1000 nM.

In the case of `COc1ccc2c(C3C(C(C)=O)=C(C)NC(C)=C3C(C)=O)csc2c1` [Example G3, 1,1′-(4-(6-Methoxybenzo[b]thiophen-3-yl)-2,6-dimethyl-1,4-dihydropyridine-3,5-diyl)diethanone], the IC50 at Rat Androgen Receptor was at least 1000 nM.

As to `COCCC1=C(C(=O)OC)C(c2csc3ccccc23)C(C(C)=O)=C(C)N1` (centres unmarked) [Example C7, Methyl 5-acetyl-4-(benzo[b]thiophen-3-yl)-2-(2-methoxyethyl)-6-methyl-1,4-dihydropyridine-3-carboxylate], at Rat Androgen Receptor, the IC50 lay within 100 to 1000 nM.

As for `CC(=O)C1=C(C)NC(C)=C(C(=O)OC2CCCC2)C1c1csc2ccccc12` (centres unmarked) [Example C26, Cyclopentyl 5-acetyl-4-(benzo[b]thiophen-3-yl)-2,6-dimethyl-1,4-dihydropyridine-3-carboxylate], the IC50 at Rat Androgen Receptor was below 100 nM.

Turning to `COC(=O)C1=C(C)NC(C)=C(C(C)=O)C1c1csc2ccc(F)cc12` (centres unmarked) [Example J11, Methyl 5-acetyl-4-(5-fluorobenzo[b]thiophen-3-yl)-2,6-dimethyl-1,4-dihydropyridine-3-carboxylate], the IC50 on Rat Androgen Receptor was below 100 nM.

For `COC(=O)C1=C(N)NC(C)=C(C(=O)C2CC2)C1c1csc2ccccc12` (centres unmarked) [Example D2, Methyl 2-amino-4-(benzo[b]thiophen-3-yl)-5-(cyclopropanecarbonyl)-6-methyl-1,4-dihydropyridine-3-carboxylate], the IC50 on Rat Androgen Receptor is at least 1000 nM.

Consider `CCOC(=O)C1=C(C)NC(C)=C(C(C)=O)C1c1csc2ccccc12` (centres unmarked) [Example J2, Ethyl 5-acetyl-4-(benzo[b]thiophen-3-yl)-2,6-dimethyl-1,4-dihydropyridine-3-carboxylate], for which the IC50 on Rat Androgen Receptor was below 100 nM.

For the molecule `CC(=O)C1=C(C)NC(C)=C(C(=O)OCC2CCCC2)C1c1csc2ccccc12` (centres unmarked) [Example C23, Cyclopentylmethyl 5-acetyl-4-(benzo[b]thiophen-3-yl)-2,6-dimethyl-1,4-dihydropyridine-3-carboxylate], the IC50 on Rat Androgen Receptor is below 100 nM.

With `CC(=O)C1=C(C)NC(C)=C(C(C)=O)C1c1csc2ccc(F)cc12` [Example H3, 1,1′-(4-(5-fluorobenzo[b]thiophen-3-yl)-2,6-dimethyl-1,4-dihydropyridine-3,5-diyl)bis(ethan-1-one)], on Rat Androgen Receptor, the IC50 was at least 1000 nM.

As to `COC(=O)C1=C(C)NC(N)=C(C(=O)OCC2CCC2)C1c1csc2c(C#N)cccc12` (centres unmarked) [Example D33, 3-(Cyclobutylmethyl) 5-methyl 2-amino-4-(7-cyanobenzo[b]thiophen-3-yl)-6-methyl-1,4-dihydropyridine-3,5-dicarboxylate], the IC50 was 100 to 1000 nM on human androgen receptor and below 100 nM in assay [1].

For `CC(=O)C1=C(C(=O)OCC2CC2)C(c2csc3c(C#N)cccc23)C(C(C)=O)=C(C)N1` (centres unmarked) [Example C123, Cyclopropylmethyl 2,5-diacetyl-4-(7-cyanobenzo[b]thiophen-3-yl)-6-methyl-1,4-dihydropyridine-3-carboxylate], the IC50 (at human androgen receptor; in assay [1]) was below 100 nM throughout.

As to `CC(=O)C1=C(C)NC(C2CC2)=C(C(=O)OCc2ccccc2)C1c1csc2ncccc12` (centres unmarked) [Example J31, Benzyl 5-acetyl-2-cyclopropyl-6-methyl-4-(thieno[2,3-b]pyridin-3-yl)-1,4-dihydropyridine-3-carboxylate], the IC50 was at least 1000 nM at human androgen receptor and below 100 nM in assay [1].

For the molecule `COC(=O)C1=C(C2CC2)NC(C2CC2)=C(C(=O)OC)C1c1csc2c(C#N)cccc12` [Example J28-a, Dimethyl 4-(7-cyanobenzo[b]thiophen-3-yl)-2,6-dicyclopropyl-1,4-dihydropyridine-3,5-dicarboxylate], the values for the IC50 (at human androgen receptor; in assay [1]) were 100 to 1000 nM and below 100 nM, respectively.
